Measured values reported in paper PMC6273584, “Synthesis of Thiazolo[5,4-f]quinazolin-9(8H)-ones as Multi-Target Directed Ligands of Ser/Thr Kinases” (Molecules, 2016).
Where two headings read alike, the source gives them in different places.

What was measured:
GSK-3α/β = test: In vitro kinase assay GSK-3α/β, GS-1 peptide substrate; format: biochemical, Porcine
Description: (§1) It was also tested as positive control and its IC50 values were compared to those obtained for the compounds under study.
(§2) Buffer A: MgCl2 (10 mM), 1 mM ethylene glycol-bis(2-aminoethylether)-N,N,N’,N’- tetraacetic acid (EGTA), 1 mM dithiothreitol (DTT), 25 mM Tris-HCl pH 7.5, 50 μg heparin/mL. Buffer B: β-Glycerophosphate (60 mM), 30 mM p-nitrophenylphosphate, 25 mM 3-(N-morpholino) propanesulfonic acid (Mops) (pH 7.2), 5 mM EGTA, 15 mM MgCl2, 1 mM DTT, 0.1 mM sodium vanadate.
(§3) Blank values were substracted and activities expressed in % of the maximal activity, i.e., in the absence of inhibitors. Controls were performed with appropriate dilutions of dimethylsulfoxide (DMSO). IC50 values were calculated from dose-response curves established by Sigma-Plot graphs. The GSK-3, CK1, DYRK1A and CLK1 peptide substrates were obtained from Proteogenix (Oberhausbergen, France).
(§4) CDK5/p25. (Human, recombinant) was prepared as previously described. […] ATP (3000 Ci/mmol; 10 mCi/mL) in a final volume of 30 μL. After 30 min incubation at 30 °C, 25 μL aliquots of supernatant were spotted onto sheets of P81 phosphocellulose paper (Whatman) and 20 s later, the filters were washed eight times (for at least 5 min each time) in a solution of 10 mL phosphoric acid/L of water. The wet filters were counted in the presence of 1 mL ACS (Amersham, UK) scintillation fluid.
GSK-3α/β. (Porcine brain, native) was assayed, as described for CDK5/p25 but in buffer A and using a GSK-3 specific substrate (GS-1: […]pSEDEEE) (pS stands for phosphorylated serine).

DYRK1A = DYRK1A (Rattus norvegicus, UniProt Q63470); test: In vitro kinase assay DYRK1A, Woodtide substrate; format: biochemical
Description: as §1, §2, §3, §4

CK1δ/ε = test: In vitro kinase assay CK1δ/ε, CK1-specific peptide substrate; format: biochemical, Porcine
Description: as §1, §2, §3, §4
CK1δ/ε. (Porcine brain, native) was assayed as described for CDK5/p25 but using the CK1-specific peptide substrate […]pSAYSITA [37].

CLK1 = CLK1 (Homo sapiens, UniProt P49759); test: biochemical
CDK5/p25 = molecular target: T1, CDK5/p25 (Homo sapiens, UniProt Q00535); test: In vitro kinase assay CDK5/p25, [γ-33P]ATP, histone H1 substrate; format: biochemical
T1 construct: made in house
Description: as §1, §2, §3, §4

[1] = 15 μM ATP, 30 min, 30 °C, triplicate, <50% inhibition at 10 μM = IC50 >10 μM

T1 sequence (Q00535 whole entry): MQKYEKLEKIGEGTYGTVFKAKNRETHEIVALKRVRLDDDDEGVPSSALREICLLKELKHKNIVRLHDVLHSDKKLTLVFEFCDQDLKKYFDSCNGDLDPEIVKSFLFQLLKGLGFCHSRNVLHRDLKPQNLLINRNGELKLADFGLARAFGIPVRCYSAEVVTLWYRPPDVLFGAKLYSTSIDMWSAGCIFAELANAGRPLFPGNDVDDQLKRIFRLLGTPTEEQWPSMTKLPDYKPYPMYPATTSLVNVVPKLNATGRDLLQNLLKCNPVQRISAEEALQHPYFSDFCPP
T1 sequence (Q15078 99-307 partner limits assumed): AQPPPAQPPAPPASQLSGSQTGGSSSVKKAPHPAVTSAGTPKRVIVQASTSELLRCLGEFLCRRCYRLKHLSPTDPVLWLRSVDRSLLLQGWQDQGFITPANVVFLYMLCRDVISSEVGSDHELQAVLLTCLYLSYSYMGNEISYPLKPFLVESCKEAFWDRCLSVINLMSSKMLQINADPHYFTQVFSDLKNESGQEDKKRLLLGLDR
Chain of CLK1 (P49759 whole entry): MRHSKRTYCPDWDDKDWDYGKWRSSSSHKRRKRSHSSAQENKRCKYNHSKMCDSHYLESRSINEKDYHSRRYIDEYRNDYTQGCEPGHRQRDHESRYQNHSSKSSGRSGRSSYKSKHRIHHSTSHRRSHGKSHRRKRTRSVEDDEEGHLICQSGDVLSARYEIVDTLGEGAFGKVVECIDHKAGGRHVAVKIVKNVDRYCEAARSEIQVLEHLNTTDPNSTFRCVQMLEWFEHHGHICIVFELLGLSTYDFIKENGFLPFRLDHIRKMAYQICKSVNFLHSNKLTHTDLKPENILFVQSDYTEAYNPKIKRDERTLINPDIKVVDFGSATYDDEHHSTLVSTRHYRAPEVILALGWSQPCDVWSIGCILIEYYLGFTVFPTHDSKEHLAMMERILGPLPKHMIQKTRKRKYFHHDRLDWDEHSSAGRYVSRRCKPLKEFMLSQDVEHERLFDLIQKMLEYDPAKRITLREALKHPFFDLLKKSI

## COC(=N)c1nc2ccc3ncn(N(C)C)c(=O)c3c2s1 [Compound 12h, Methyl 8-dimethylamino-9-oxo-8,9-dihydrothiazolo[5,4-f]quinazoline-2-carbimidate]
GSK-3α/β
  IC50: 0.3 µM
DYRK1A; read-out: DYRK1A IC50
  IC50: 0.5 µM
CK1δ/ε; [1]
  IC50: > 10 µM
CLK1
  IC50: 0.99 µM
CDK5/p25
  IC50: > 10 µM

## N=C(OCc1ccccc1)c1nc2ccc3ncn(C4CCCCC4)c(=O)c3c2s1 [Compound 13g, Benzyl 8-cyclohexyl-9-oxo-8,9-dihydrothiazolo[5,4-f]quinazoline-2-carbimidate]
GSK-3α/β
  IC50: 0.083 µM
DYRK1A
  IC50: 0.28 µM
CK1δ/ε; [1]
  IC50: > 10 µM
CLK1
  IC50: 1.3 µM
CDK5/p25
  IC50: > 10 µM

## COC(=N)c1nc2ccc3ncn(C(C)C)c(=O)c3c2s1 [Compound 12d, Methyl 8-isopropyl-9-oxo-8,9-dihydrothiazolo[5,4-f]quinazoline-2-carbimidate]
GSK-3α/β
  IC50: 0.041 µM
DYRK1A
  IC50: 0.14 µM
CK1δ/ε
  IC50: 5.4 µM
CLK1
  IC50: 0.16 µM
CDK5/p25
  IC50: 3 µM

## CC(C)OC(=N)c1nc2ccc3ncn(C4CC4)c(=O)c3c2s1 [Compound 15a, Isopropyl 8-cyclopropyl-9-oxo-8,9-dihydrothiazolo[5,4-f]quinazoline-2-carbimidate]
GSK-3α/β
  IC50: 0.42 µM
DYRK1A
  IC50: 0.42 µM
CK1δ/ε; [1]
  IC50: > 10 µM
CLK1
  IC50: 0.043 µM
CDK5/p25
  IC50: > 10 µM

## COC(=N)c1nc2ccc3ncn(-c4ccc(C)cc4)c(=O)c3c2s1 [Compound 12k, Methyl 8-(p-tolyl)-9-oxo-8,9-dihydrothiazolo[5,4-f]quinazoline-2-carbimidate]
GSK-3α/β
  IC50: 0.51 µM
DYRK1A
  IC50: 0.38 µM
CK1δ/ε; [1]
  IC50: > 10 µM
CLK1
  IC50: 0.88 µM
CDK5/p25
  IC50: > 10 µM

## COC(=N)c1nc2ccc3ncn(C4CCCC4)c(=O)c3c2s1 [Compound 12e, Methyl 8-cyclopentyl-9-oxo-8,9-dihydrothiazolo[5,4-f]quinazoline-2-carbimidate]
GSK-3α/β
  IC50: 0.028 µM
DYRK1A
  IC50: 0.072 µM
CK1δ/ε; [1]
  IC50: > 10 µM
CLK1
  IC50: 0.29 µM
CDK5/p25
  IC50: 4.9 µM

## CCOC(=N)c1nc2ccc3ncn(C(C)C)c(=O)c3c2s1 [Compound 14d, Ethyl 8-isopropyl-9-oxo-8,9-dihydrothiazolo[5,4-f]quinazoline-2-carboximidoate]
DYRK1A
  IC50: 0.37 µM
CK1δ/ε; [1]
  IC50: > 10 µM
CLK1
  IC50: 0.34 µM
CDK5/p25
  IC50: > 10 µM

## COC(=N)c1nc2ccc3ncn(-c4ccc(N(C)C)cc4)c(=O)c3c2s1 [Compound 12m, Methyl 8-(4-dimethylaminophenyl)-9-oxo-8,9-dihydrothiazolo[5,4-f]quinazoline-2-carbimidate]
GSK-3α/β; [1]
  IC50: > 10 µM
DYRK1A
  IC50: > 10 µM
CK1δ/ε; [1]
  IC50: > 10 µM
CLK1
  IC50: > 10 µM
CDK5/p25
  IC50: > 10 µM

## COC(=N)c1nc2ccc3ncn(C)c(=O)c3c2s1 [Compound 12n, Methyl 8-methyl-9-oxo-8,9-dihydrothiazolo[5,4-f]quinazoline-2-carbimidate]
GSK-3α/β
  IC50: 1.7 µM
DYRK1A
  IC50: 0.18 µM
CK1δ/ε; [1]
  IC50: > 10 µM
CLK1
  IC50: 0.08 µM
CDK5/p25
  IC50: > 10 µM

## COC(=N)c1nc2ccc3ncn(CCN4CCOCC4)c(=O)c3c2s1 [Compound 12j, Methyl 8-(2-morpholinoethyl)-9-oxo-8,9-dihydrothiazolo[5,4-f]quinazoline-2-carbimidate]
GSK-3α/β
  IC50: 1.2 µM
DYRK1A
  IC50: 0.2 µM
CK1δ/ε; [1]
  IC50: > 10 µM
CLK1
  IC50: 0.69 µM
CDK5/p25
  IC50: > 10 µM

## COC(=N)c1nc2ccc3ncn(C4CC4)c(=O)c3c2s1 [Compound 12a, Methyl 8-cyclopropyl-9-oxo-8,9-dihydrothiazolo[5,4-f]quinazoline-2-carbimidate]
GSK-3α/β
  IC50: 0.082 µM
DYRK1A; read-out: DYRK1A IC50
  IC50: 0.091 µM
CK1δ/ε; [1]
  IC50: > 10 µM
CLK1
  IC50: 0.031 µM
CDK5/p25
  IC50: 3.9 µM

## CCOC(=N)c1nc2ccc3ncn(C4CCCC4)c(=O)c3c2s1 [Compound 14e, Ethyl 8-cyclopentyl-9-oxo-8,9-dihydrothiazolo[5,4-f]quinazoline-2-carbimidate]
GSK-3α/β
  IC50: 0.029 µM
DYRK1A
  IC50: 0.23 µM
CK1δ/ε; [1]
  IC50: > 10 µM
CLK1
  IC50: 0.78 µM
CDK5/p25
  IC50: > 10 µM

## COC(=N)c1nc2ccc3ncn(C4CCC4)c(=O)c3c2s1 [Compound 12f, Methyl 8-cyclobutyl-9-oxo-8,9-dihydrothiazolo[5,4-f]quinazoline-2-carbimidate]
GSK-3α/β
  IC50: 0.16 µM
DYRK1A
  IC50: 0.13 µM
CK1δ/ε; [1]
  IC50: > 10 µM
CLK1
  IC50: 0.091 µM
CDK5/p25
  IC50: > 10 µM

## COC(=N)c1nc2ccc3ncn(C4CCCCC4)c(=O)c3c2s1 [Compound 12g, Methyl 8-cyclohexyl-9-oxo-8,9-dihydrothiazolo[5,4-f]quinazoline-2-carbimidate]
GSK-3α/β
  IC50: 0.03 µM
DYRK1A
  IC50: 0.17 µM
CK1δ/ε; [1]
  IC50: > 10 µM
CLK1
  IC50: 0.38 µM
CDK5/p25
  IC50: 1.8 µM

## CCOC(=N)c1nc2ccc3ncn(CCCOC)c(=O)c3c2s1 [Compound 14c, Ethyl 8-(3-methoxypropyl)-9-oxo-8,9-dihydrothiazolo[5,4-f]quinazoline-2-carboximidoate]
GSK-3α/β
  IC50: 0.17 µM
DYRK1A
  IC50: 0.37 µM
CK1δ/ε; [1]
  IC50: > 10 µM
CLK1
  IC50: 0.49 µM
CDK5/p25
  IC50: > 10 µM

## N=C(OCc1ccccc1)c1nc2ccc3ncn(C4CC4)c(=O)c3c2s1 [Compound 13a, Benzyl 8-cyclopropyl-9-oxo-8,9-dihydrothiazolo[5,4-f]quinazoline-2-carbimidate]
GSK-3α/β; [1]
  IC50: 0.1 µM
DYRK1A
  IC50: 0.06 µM
CK1δ/ε; [1]
  IC50: > 10 µM
CLK1
  IC50: 0.06 µM
CDK5/p25
  IC50: > 10 µM

## CCOC(=N)c1nc2ccc3ncn(CCOC)c(=O)c3c2s1 [Compound 14b, Ethyl 8-(2-methoxyethyl)-9-oxo-8,9-dihydrothiazolo[5,4-f]quinazoline-2-carboximidoate]
GSK-3α/β
  IC50: 1.2 µM
DYRK1A
  IC50: 0.82 µM
CK1δ/ε; [1]
  IC50: > 10 µM
CLK1
  IC50: 1.9 µM
CDK5/p25
  IC50: > 10 µM

## COCCCn1cnc2ccc3nc(C#N)sc3c2c1=O [Compound 11c, 8-(3-Methoxypropyl)-9-oxo-8,9-dihydrothiazolo[5,4-f]quinazoline-2-carbonitrile]
GSK-3α/β
  IC50: 1.2 µM
DYRK1A
  IC50: 7.7 µM
CK1δ/ε; [1]
  IC50: > 10 µM
CLK1
  IC50: 1.3 µM
CDK5/p25
  IC50: > 10 µM

## N#Cc1nc2ccc3ncn(C4CC4)c(=O)c3c2s1 [Compound 11a, 8-Cyclopropyl-9-oxo-8,9-dihydrothiazolo[5,4-f]quinazoline-2-carbonitrile]
GSK-3α/β
  IC50: 3.3 µM
DYRK1A
  IC50: 3.3 µM
CK1δ/ε; [1]
  IC50: > 10 µM
CLK1
  IC50: 1.1 µM
CDK5/p25
  IC50: > 10 µM

## COCCCn1cnc2ccc3nc(C(=N)OCc4ccccc4)sc3c2c1=O [Compound 13c, Benzyl 8-(3-methoxypropyl)-9-oxo-8,9-dihydrothiazolo[5,4-f]quinazoline-2-carbimidate]
GSK-3α/β
  IC50: 0.11 µM
DYRK1A
  IC50: 0.16 µM
CK1δ/ε; [1]
  IC50: > 10 µM
CLK1
  IC50: 0.48 µM
CDK5/p25
  IC50: > 10 µM

## COCCn1cnc2ccc3nc(C(=N)OCc4ccccc4)sc3c2c1=O [Compound 13b, Benzyl 8-(2-methoxyethyl)-9-oxo-8,9-dihydrothiazolo[5,4-f]quinazoline-2-carbimidate]
GSK-3α/β
  IC50: 0.69 µM
DYRK1A
  IC50: 0.29 µM
CK1δ/ε; [1]
  IC50: > 10 µM
CLK1
  IC50: 0.59 µM
CDK5/p25
  IC50: > 10 µM

## COCCn1cnc2ccc3nc(C#N)sc3c2c1=O [Compound 11b, 8-(2-Methoxyethyl)-9-oxo-8,9-dihydrothiazolo[5,4-f]quinazoline-2-carbonitrile]
GSK-3α/β; [1]
  IC50: ≥ 10 µM
DYRK1A
  IC50: 7.8 µM
CK1δ/ε; [1]
  IC50: > 10 µM
CLK1
  IC50: 4.1 µM
CDK5/p25
  IC50: > 10 µM

## COc1ccc2c(c1)[nH]c1c(C)nccc12 [Harmine, reference compound]
GSK-3α/β; [1]
  IC50: > 10 µM
CK1δ/ε
  IC50: 1.5 µM

## N=C(OCc1ccccc1)c1nc2ccc3ncn(C4CCCC4)c(=O)c3c2s1 [Compound 13e, Benzyl 8-cyclopentyl-9-oxo-8,9-dihydrothiazolo[5,4-f]quinazoline-2-carbimidate]
GSK-3α/β
  IC50: 0.028 µM
DYRK1A
  IC50: 0.062 µM
CK1δ/ε; [1]
  IC50: > 10 µM
CLK1
  IC50: 0.32 µM
CDK5/p25
  IC50: > 10 µM

## N=C(OCc1ccccc1)c1nc2ccc3ncn(C4CCC4)c(=O)c3c2s1 [Compound 13f, Benzyl 8-cyclobutyl-9-oxo-8,9-dihydrothiazolo[5,4-f]quinazoline-2-carbimidate]
GSK-3α/β
  IC50: 0.071 µM
DYRK1A
  IC50: 0.059 µM
CK1δ/ε; [1]
  IC50: > 10 µM
CLK1
  IC50: 0.071 µM
CDK5/p25
  IC50: > 10 µM

## CCOC(=N)c1nc2ccc3ncn(C4CC4)c(=O)c3c2s1 [Compound 14a, Ethyl 8-cyclopropyl-9-oxo-8,9-dihydrothiazolo[5,4-f]quinazoline-2-carbimidate]
GSK-3α/β
  IC50: 0.2 µM
DYRK1A
  IC50: 0.21 µM
CK1δ/ε; [1]
  IC50: > 10 µM
CLK1
  IC50: 0.1 µM
CDK5/p25
  IC50: > 10 µM

## CN(C)n1cnc2ccc3nc(C(=N)OCc4ccccc4)sc3c2c1=O [Compound 13h, Benzyl 8-dimethylamino-9-oxo-8,9-dihydrothiazolo[5,4-f]quinazoline-2-carbimidate]
GSK-3α/β
  IC50: 0.15 µM
DYRK1A
  IC50: 0.21 µM
CK1δ/ε; [1]
  IC50: > 10 µM
CLK1
  IC50: 1.4 µM
CDK5/p25
  IC50: > 10 µM
